Results as given in patent publication US20250179465A1, “SITE-SPECIFIC ENCODING OF FLUORINATED PHENYLALANINE RESIDUES IN BACTERIAL AND MAMMALIAN CELLS” (University of Iowa Research Foundation, priority 2022, published 2025).

What was measured:
[1] = molecular target: T1, PheX-D6 (Methanosarcina barkeri, UniProt Q6WRH6, C313M/N311A/V366G/W382T); assay: ESI-MS encoding fidelity of sfGFP_N150TAG expressed in HEK 293T cells with PheX-D6; format: cell-based, human; design: Phex-D6 HEK; expressed in transfected cells; host or cells: HEK 293T; conditions: PheX-D6, HEK 293T cells, 2 mM ncAA, estimated
Procedure: (§1) HEK 293T cells were expanded in […]. […] Overall, 7-40 dishes were transfected with master mixes such that each dish received 3.5 μg of pACBAC1, 1.5 μg sfGFP_N150TAG, and 15 μL of PolyJET according to manufacturer's instructions. Media was changed before transfection and approximately 18 hrs after transfection. Cells were harvested approximately 36 hours after transfection. To harvest, each dish was washed twice with DPBS. Cells were harvested via scraping in ice-cold DPBS plus Roche protease inhibitors, on ice, pelleted by centrifugation, and flash frozen in liquid nitrogen. Cells were lysed in hypotonic lysis buffer (10 mM Tris/HCl pH 8, Roche protease inhibitors, 0.1% Triton X 100 Sigma) via dounce homogenization on ice. Cell debris and nuclei were cleared via centrifugation. Clarified lysate was diluted 1:2 in Wash buffer (25 mM Tris/HCl pH 8, 20 mM Imidazole, 150 mM NaCl) and applied to pre-equilibrated Ni-NTA resin (Qiagen). Column was washed in at least 30 volumes of wash buffer, then protein was eluted in elution buffer (25 mM Tris/HCl pH 8, 250 mM Imidazole, 150 mM NaCl). Elution was exchanged into 100 mM TEAB, prepared via 1:10 dilution of 1 M Stock (thermofisher) in ultrapure water. Finally, protein was concentrated to ˜0.5 mg/ml, flash frozen, and submitted to Novatia Inc for ESI mass spec of the intact protein. […] The spectra was analyzed in-house by Novatia (Promass software) to yield relative intensities of the dominant mass and any other apparent peaks. […] To be conservative, all other peaks were considered unexpected mass, even though they may not represent actual misincorporation.
Target sequence in this assay (Q6WRH6 other isoform, or with tags, fused parts or gaps N311A/C313M/V366G/W382T): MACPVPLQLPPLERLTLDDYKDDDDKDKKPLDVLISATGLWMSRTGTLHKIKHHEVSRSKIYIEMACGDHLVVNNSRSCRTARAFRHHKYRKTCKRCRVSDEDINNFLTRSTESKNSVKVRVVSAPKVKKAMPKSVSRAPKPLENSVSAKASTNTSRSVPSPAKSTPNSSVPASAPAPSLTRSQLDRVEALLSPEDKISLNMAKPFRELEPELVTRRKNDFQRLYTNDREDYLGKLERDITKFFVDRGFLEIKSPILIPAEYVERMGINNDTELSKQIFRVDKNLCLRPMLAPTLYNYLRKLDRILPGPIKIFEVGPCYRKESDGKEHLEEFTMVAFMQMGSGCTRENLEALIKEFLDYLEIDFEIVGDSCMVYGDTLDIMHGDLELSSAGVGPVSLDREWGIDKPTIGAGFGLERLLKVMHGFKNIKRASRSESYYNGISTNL

[2] = molecular target: T2, PheX-B5 (Methanosarcina barkeri, UniProt Q6WRH6, C313A/N311G); assay: ESI-MS encoding fidelity of sfGFP_N150TAG expressed in HEK 293T cells with PheX-B5; format: cell-based, human; design: Phex-B5 HEK; expressed in transfected cells; host or cells: HEK 293T; conditions: for fidelity (encoding): PheX-B5, HEK 293T cells, sfGFP_N150TAG, 2 mM ncAA, ESI-MS, estimated
Procedure: as §1
Target sequence in this assay (Q6WRH6 other isoform, or with tags, fused parts or gaps N311G/C313A): as the sequence (Q6WRH6 other isoform, or with tags, fused parts or gaps N311A/C313M/V366G/W382T) above, with A336G, M338A, G391V, T407W counted along it

[3] = test system: sfGFP-N150TAG; assay: Permissivity screen (E. coli), sfGFP-N150TAG rescue fluorescence; format: cell-based; conditions: result in words; for encoding level in E. coli by the synthetases tested: 1 mM ncAA, 24 hours
Procedure: Electrocompetent DH10B cells containing the pALS reporter plasmid were transformed with isolated pBK plasmids containing the synthetases. Cultures of 5 mL were inoculated with single colonies of each synthetase in non-inducing media with 50 μg/mL kanamycin and 25 μg/mL tetracycline and grown for 16 hours. Noncanonical amino acid stocks were made at 100× their final concentration. 96-well blocks were prepared with 500 μL of auto-induction media containing antibiotics, and ncAAs with a final working concentration of 1 mM were added to their respective wells. Each well was then inoculated with a corresponding synthetase, yielding a final 96-well block where each synthetase was tested against each amino acid of interest. Cultures were grown in duplicate and fluorescence measurements were taken at 24 hours.

[4] = molecular target: T2, PheX-B5; format: cell-based; design: Phex-B5 ECOLI; expressed in transfected cells; host or cells: E. coli; conditions: PheX-B5, E. coli, sfGFP N150TAG, 1 mM ncAA, intact protein ESI-MS
Procedure: (§2) Previously existing E. coli containing sfGFP150TAG and a given Rs in non-inducing media were used to inoculate 5 mL cultures of non-inducing media containing 50 μg/mL Kan and 25 μg/mL Tet. Cultures were incubated for 20 hours at 37° C., shaking at 250 rpm. After adequate growth, 500 μL of the 5 mL cultures were used to inoculate 50 mL cultures of auto-inducing media containing 1 mM ncAA. Cultures were incubated for 24 hours (37° C., 250 rpm), after which cultures were then spun down at 5000 rcf for 10 minutes and resuspended in 10 mL of a Tris buffer solution containing 100 mM Tris, 0.5 M NaCl, and 5 mM imidazole. Cells were lysed by micro-fluidization at 18,000 psi and centrifuged at […] for 30 minutes. sfGFP proteins in cell lysate were bound to TALON Metal Affinity Resin (bed volume of 100 μL) at 4° C. for 1 hour. Lysate and bound resin were transferred to a gravity-flow column and the resin was washed with 30 bed volumes of buffer. Protein was eluted using Tris buffer solution previously described supplemented with 200 mM imidazole. Protein concentration was assessed by comparing sfGFP fluorescence to a standard curve and submitted for ESI-MS.
(§3) The spectra were analyzed in-house by Novatia (Promass) to yield relative intensities at given masses. […] For the purpose of estimating encoding fidelity, these were considered part of the expected mass, and all other signals were considered non-expected mass.
Target sequence in this assay (Q6WRH6 whole entry N311G/C313A): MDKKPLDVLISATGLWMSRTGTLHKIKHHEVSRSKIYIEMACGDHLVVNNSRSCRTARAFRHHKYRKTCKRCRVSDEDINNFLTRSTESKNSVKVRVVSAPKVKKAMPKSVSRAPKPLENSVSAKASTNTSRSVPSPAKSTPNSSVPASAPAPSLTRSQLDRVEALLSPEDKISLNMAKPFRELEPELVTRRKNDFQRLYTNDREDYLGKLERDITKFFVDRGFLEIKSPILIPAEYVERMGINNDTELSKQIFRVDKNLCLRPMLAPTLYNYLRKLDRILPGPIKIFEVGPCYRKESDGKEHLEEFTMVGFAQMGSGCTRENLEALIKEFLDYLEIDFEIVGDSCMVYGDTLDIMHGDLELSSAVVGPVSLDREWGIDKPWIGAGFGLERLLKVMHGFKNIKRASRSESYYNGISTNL

[5] = molecular target: T1, PheX-D6; assay: ESI-MS encoding fidelity of sfGFP_N150TAG expressed in E. coli with PheX-D6; format: cell-based; design: Phex-D6 ECOLI; expressed in transfected cells; host or cells: E. coli; conditions: sfGFP N150TAG, 1 mM ncAA, intact protein ESI-MS
Procedure: as §2, §3
Target sequence in this assay (Q6WRH6 whole entry N311A/C313M/V366G/W382T): as the sequence (Q6WRH6 whole entry N311G/C313A) above, with G311A, A313M, V366G, W382T counted along it

[6] = test system: F508TAG-CFTR; assay: Western blot of full-length F508TAG-CFTR expression via PheX-D6; format: cell-based, human; conditions: F508TAG CFTR with PheX-D6, HEK 293T, 2 mM ncAA, result in words
Procedure: (§4) pCMV-CFTR was a gift from Paul McCray (University of Iowa). WT CFTR-TAA (the existing TAG stop codon changed to TAA), F508 TAG CFTR (TAG amber codon introduced at F508 in the above WT construct), as well as WT and F1486TAG hNav 1.5_strep_HIS_strep were produced using standard methods and sequenced through the open reading frame. For expression of WT CFTR, 10 cm dishes of HEK 293T cells were transfected with 1.5 μg WT CFTR-TAA and 0.25 μg WT GFP. For expression of WT hNav 1.5, 10 cm dishes of HEK 293T cells were transfected with 1.5 μg of WT hNav 1.5_strep_HIS_strep and 0.25 μg WT GFP. For encoding of 2,3,6F Phe, 10 cm dishes of HEK 293T cells were transfected from master mixes of DNA such that each dish received 3.5 μg of PheX-D6 and 0.25 μg of sfSFGFP_N150TAG. Depending on condition, 2 μg of F508TAG-CFTR or 1.5 μg of F1486TAG-Nav 1.5-SHS were added. Media was changed twice (˜16 hr and ˜32 hr post transfection), and cells were harvested ˜44 hrs post transfection and flash frozen in aliquots. Cell pellets were resuspended in RIPA (Sigma Aldrich) plus Roche protease inhibitors. 60 μg of protein from cleared, unconcentrated lysate (or a dilution) was loaded on 4-20% SDS gels. […]

[7] = test system: F1486TAG-hNav 1.5; assay: Western blot of full-length F1486TAG-hNav 1.5 expression via PheX-D6; format: cell-based, human; conditions: F1486TAG hNav 1.5 with PheX-D6, HEK 293T, 2 mM ncAA, result in words
Procedure: as §4

[8] = test system: sfGFP_N150TAG; assay: Permissivity screen (mammalian), lysate GFP fluorescence; format: cell-based, human; conditions: HEKT cells, PheX-D6, result in words
Procedure: HEKT cells were seeded in 60 mm dishes so that they would be approximately 60-80% confluent the next day. We transfected the cells using 1.75 μg of the PacBac1-based synthetase plasmid (PheX-D6 or PheX-B5) and 0.75 μg of sfGFP_N150TAG per dish. Polyjet was used (7.5 μl per dish, 2.5 mL media volume). Media was exchanged to contain ncAAs at a given concentration before transfection and approximately 16 hours after transfection. Amino acids were solubilized either in NaOH for those synthesized as free acids (penta-flouro, 2,3,6 trifluoro, 3,4,5 trifluoro, 2,5 difluoro, 2,4 difluoro, 2 mono) or in HCl for those synthesized as HCl salts (2,3,5,6 tetrafluoro, 2,3,4,5 tetrafluoro, 2,6 difluoro). Cells were imaged and harvested approximately 24 hrs after transfection. Images were taken with 20× objective using a Leica DFC9000GT camera with 700 ms exposure, without binning. Excitation was through an X-Cite 120 LED (Lumen Dynamics) set to 100% intensity. For bright field images, light was adjusted manually. […] After cell debris and nuclei were cleared via centrifugation, GFP fluorescence was read from supernatants in 96 well plates; for each concentration of amino acid, at least 6 readings were made from at least 2 transfections. The level of fluorescence from lysates from untransfected cells averaged 21.7±2.1 RFU. […]

N[C@@H](Cc1cc(F)c(F)c(F)c1F)C(=O)O [2,3,4,5-fluoro phenylalanine, 2,3,4,5 tetra-fluoro Phenylalanine]
fidelity (encoding) [1]: 100% | fidelity (encoding) [2]: 97.4%

N[C@@H](Cc1c(F)c(F)cc(F)c1F)C(=O)O [2,3,5,6-fluoro Phe, 2,3,5,6 tetra-fluoro Phenylalanine]
encoding level in E. coli by the synthetases tested [3]: comparable levels to para-methyl tetra-fluoro Phe | encoding fidelity [4]: 97.9% | fidelity (encoding) [1]: 98.2% | fidelity (encoding) [2]: 100% | encoding fidelity [5]: 98.7%

N[C@@H](Cc1c(F)ccc(F)c1F)C(=O)O [2,3,6-fluoro Phe, 2,3,6 tri-fluoro Phenylalanine]
encoding fidelity [4]: 88.1% | expression of full-length channel (western blot) [6]: dependent on addition of 2,3,6F Phe | fidelity (encoding) [1]: 98.5% | fidelity (encoding) [2]: 100% | expression of full-length channel (western blot) [7]: dependent on addition of 2,3,6F Phe | encoding fidelity [5]: 96.7%

N[C@@H](Cc1cc(F)ccc1F)C(=O)O [2,5-fluoro phenylalanine, 2,5-difluoro-Phe]
fidelity (encoding) [1]: 95.6% | fidelity (encoding) [2]: 91.3%

N[C@@H](Cc1c(F)cccc1F)C(=O)O [2,6-fluoro Phe, 2,6 di-fluoro Phenylalanine]
encoding fidelity [4]: 81.8% | fidelity (encoding) [1]: 97.6% | fidelity (encoding) [2]: 100% | encoding fidelity [5]: 95.0%

N[C@@H](Cc1ccccc1F)C(=O)O [2-fluoro Phe, 2-mono fluoro Phenylalanine]
expression in the screen ([3]; E. coli, D6 synthetase): low expression in the screen | encoding fidelity [4]: 95.6% | site-specificity of encoding (ESI-MS) ([2]; HEKT cells, sfGFP-N150TAG with PheX-B5, result in words): widespread encoding of 2-mono fluoro Phe at Phe-codons

N[C@@H](Cc1c(F)c(F)c(F)c(F)c1F)C(=O)O [Penta-fluoro Phe, 2,3,4,5,6 penta-fluoro Phenylalanine]
encoding level in E. coli by the synthetases tested [3]: comparable levels to para-methyl tetra-fluoro Phe | encoding fidelity [4]: 97.5% | fidelity (encoding) [1]: 97.5% | fidelity (encoding) [2]: 96.2% | encoding fidelity [5]: 98.2% | useable ncAA concentration (dose-response) [8]: useable at sub-millimolar concentrations
